Values joined by “and” are separate entries in the source; they are usually repeats but may differ in a detail not shown here. Equal values may be shown once. Where a name gives a salt, the structure may show the parent alone. Read-outs that look alike come from different tables or passages of the source.
How the values were obtained:
[1] = system: LPS-induced microglia activation; assay: Image-based assay of LPS-induced microglia activation (HTS and dose response); format: cell-based, rat; details: for LPS % inhibition: 10 µM; for inhibition at 10 µM: Rattus norvegicus, Microglia, read-out: LPS % inhibition
[2] = system: fibrin- and LPS-induced microglia activation; assay: cells; format: cell-based, rat
[3] = system: primary rat microglia
[4] = system: fibrin-induced microglia activation; assay: Image-based assay of fibrin-induced microglia activation (HTS and dose response); format: cell-based, rat; details: for Fibrin % inhibition: 10 µM; for inhibition at 10 µM: Rattus norvegicus, Microglia, read-out: Fibrin % inhibition
[5] = primary microglia HTS, LPS stimulation, compounds at 10 μM
[6] = quadrant by fibrin and LPS inhibition, HTS at 10 μM
[7] = primary microglia HTS, fibrin stimulation, compounds at 10 μM
[8] = 48 h, primary microglia HTS, LPS stimulation, increased cell size (>800 μm^2) as marker of activation
[9] = quadrant by fibrin and LPS inhibition in HTS of 1907 compounds
[10] = primary microglia HTS, fibrin stimulation, increased cell size (>800 μm^2) as marker of activation
[11] = primary HTS, 10 μM, LPS-stimulated primary microglia
[12] = primary HTS, 10 μM, fibrin-stimulated primary microglia

Row | Compound | LPS % cell toxicity ([3]; rat) | inhibition at 10 µM [1, 5] | Quadrant (FIG. 5b) [2, 6] | inhibition at 10 µM [1, 11] | Quadrant (FIG. 5b) ([2]; primary HTS, 10 μM) | inhibition at 10 µM [4, 12] | other results
1 | CNC[C@H](O)c1ccc(O)c(O)c1.O=C(O)C(O)C(O)C(=O)O |  |  |  |  |  |  | LPS % inhibition [1]: 19%; Quadrant (FIG. 5b) [2]: Q4; LPS % cell toxicity [3]: 0%; Fibrin % inhibition [4]: 35%
2 | CC(NC(C)(C)C)C(=O)c1cccc(Cl)c1.Cl (stereo not drawn) |  |  |  |  |  |  | LPS % inhibition [1]: 27%; Quadrant (FIG. 5b) [2]: Q4; LPS % cell toxicity [3]: 2%; Fibrin % inhibition [4]: −15%
3 | CC(C)NCC(O)COc1cccc2ccccc12 (stereo not drawn) [1-(Isopropylamino)-3-(1-Naphthyloxy)-2-Propanol] | 0% |  |  |  |  |  | 
4 | NCCS(=O)(=O)O [2-Aminoethanesulfonic Acid] | 0% | 19% | Q4 |  |  |  | inhibition at 10 µM [4, 7]: -13%
5 | CC(=O)N[C@@H](CS)C(=O)O [Acetylcysteine] | 0% | 7% | Q4 |  |  |  | LPS % inhibition [1, 5]: 13%
6 | CN(C)c1nc(N(C)C)nc(N(C)C)n1 [Altretamine] | 0% | 16% | Q4 |  |  |  | inhibition at 10 µM [4, 7]: -29%
7 | NC12CC3CC(CC(C3)C1)C2 [Amantadine] | 0% |  | Q4 |  |  |  | LPS % inhibition [1, 5]: 3% and −5%
8 | CCOC(=O)C1=C(COCCN)NC(C)=C(C(=O)OC)C1c1ccccc1Cl (stereo not drawn) [Amlodipine] | 2% | 36% | Q4 |  |  |  | inhibition at 10 µM [1, 8]: 59%; Quadrant (FIG. 5b) [2, 9]: Q1; inhibition at 10 µM [4, 7]: -17%; inhibition at 10 µM [4, 10]: -29%
9 | CCN(CC)Cc1cc(Nc2ccnc3cc(Cl)ccc23)ccc1O [Amodiaquine Dihydrochloride] | 85% |  |  |  |  |  | inhibition at 10 µM [1, 8]: 114%; Quadrant (FIG. 5b) [2, 9]: Q1; inhibition at 10 µM [4, 10]: 4%
10 | CC1CNc2c(cccc2S(=O)(=O)N[C@@H](CCCNC(=N)N)C(=O)N2CC[C@@H](C)C[C@@H]2C(=O)O)C1 (stereo partly drawn) [Argatroban] | 0% | 8% | Q4 |  |  |  | inhibition at 10 µM [4, 7]: -10%
11 | O=C1CCc2ccc(OCCCCN3CCN(c4cccc(Cl)c4Cl)CC3)cc2N1 [Aripiprazole] | 0% |  |  |  |  |  | Quadrant (FIG. 5b) [2]: Q4
12 | O=C(CCCl)NCc1ccccc1 [Beclamide] | 0% | 2% | Q4 |  |  |  | inhibition at 10 µM [4, 7]: 19%
13 | CC(C)NCC(O)COc1ccc(CCOCC2CC2)cc1 (stereo not drawn) [Betaxolol] | 0% |  |  |  |  |  | Quadrant (FIG. 5b) [2]: Q4
14 | OC(CCN1CCCCC1)(c1ccccc1)C1CC2C=CC1C2 (stereo not drawn) [Biperiden] | 1% |  |  | 17% | Q4 | 2% | 
15 | CCN(CC)CCNC(=O)c1cc(Br)c(N)cc1OC [Bromopride] | 0% |  |  | 4% | Q4 | -2% | 
16 | O=C(CCCN1CCC(O)(c2ccc(Br)cc2)CC1)c1ccc(F)cc1 [Bromperidol] | 0% |  |  | 7% | Q4 | -6% | 
17 | Cn1c(=O)c2c(ncn2C)n(C)c1=O [Caffeine] | 0% |  |  |  |  |  | inhibition at 10 µM [1]: 10%; Quadrant (FIG. 5b) [2]: Q4; inhibition at 10 µM [4]: 2%
18 | C[C@]12CCC(=O)C=C1C=C[C@@H]1[C@@H]2CC[C@@]2(C)[C@H]1CC[C@@]2(O)CCC(=O)O [Canrenoic Acid, Potassium Salt] | 0% |  |  | 8% | Q4 | -8% | 
19 | O=NN(CCCl)C(=O)NCCCl [Carmustine] | 0% |  |  | 9% | Q4 | 1% | 
20 | O=C(N[C@H](CO)[C@H](O)c1ccc([N+](=O)[O-])cc1)C(Cl)Cl [Chloramphenicol] | 0% |  |  | 6% | Q4 | 19% | 

From patent publication US20210330611A1, “THERAPY FOR NEUROLOGICAL DISEASES/DISORDERS” (priority 2020, published 2021)
